Literature values, collected in patent US6998494B2, “Preparation of trans-fused 3,3a,8,12b-tetrahydro-2h-dibenzo[3,4:6,7]cyclohepta[1,2-b]furan derivatives” (Janssen Pharmaceutica N.V., priority 2001, dated 2006).

Conditions: dose of 300 mg/kg

CNCC1CC2c3ccccc3Cc3ccccc3C2O1.O=C(O)C(=O)O (racemic) [(±)-3,3a,8,12b-tetrahydro-N-methyl-2H-dibenzo[3,4:6,7]-cyclohepta[1,2-b]furan-2-methanamine oxalic acid]
activity as an antidepressant: inactive
